Consider nine compounds from PubChem BioAssay AID256 (DTP/NCI, 2004).

“And” between values parts separate entries of the source, which are not always exact repeats. Identical values can stand only once. Inconclusive results and toxic doses are left out.

For the experiment, the system named is CD2F1 mice, L1210 leukemia ip, survival T/C. Kind of experiment: NCI In Vivo Anticancer Drug Screen. Data for tumor model L1210 Leukemia (intraperitoneal) in CD2F1 (CDF1) mice. To be noted: higher = longer survival. An outline of the steps: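 Transplantable tumor in mice; compound-treated vs vehicle-treated groups. Read-out = treated/control ratio of the measured endpoint.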

`N=[N+]=CC(=O)CCC(NC(=O)C(CCC(=O)C=[N+]=N)NC(=O)CCC(N)C(=O)O)C(=O)O` (configuration not stated): the T/C (endpoint: mean survival time, dose: 0.01 mg/kg/injection, schedule: Q01DX009 (ip), vehicle: water) is 95 % of control; the T/C (endpoint: mean survival time, dose: 0.03 mg/kg/injection, schedule: Q01DX009 (ip), vehicle: water) is 96 % of control; the T/C (endpoint: mean survival time, dose: 0.05 mg/kg/injection, schedule: Q01DX009 (ip), vehicle: other) was 115 % of control and 112 % of control; the T/C (endpoint: mean survival time, dose: 0.05 mg/kg/injection, schedule: Q01DX009 (ip), vehicle: water) is 115 % of control; the T/C (endpoint: mean survival time, dose: 0.05 mg/kg/injection, schedule: Q01DX009 (oral), vehicle: water) is 103 % of control; the T/C (endpoint: mean survival time, dose: 0.05 mg/kg/injection, schedule: Q01DX009 (sc), vehicle: water) is 116 % of control. The T/C (endpoint: mean survival time, dose: 0.1 mg/kg/injection, schedule: Q01DX009 (ip), vehicle: other) was 152 % of control; the T/C (endpoint: mean survival time, dose: 0.1 mg/kg/injection, schedule: Q01DX009 (oral), vehicle: water) was 107 % of control; the T/C (endpoint: mean survival time, dose: 0.18 mg/kg/injection, schedule: Q01DX017 (ip), vehicle: saline) is 157 % of control; the T/C (endpoint: mean survival time, dose: 0.2 mg/kg/injection, schedule: Q01DX009 (oral), vehicle: water) was 120 % of control; the T/C (endpoint: mean survival time, dose: 0.2 mg/kg/injection, schedule: Q01DX009 (sc), vehicle: water) was 101 % of control; the T/C (endpoint: mean survival time, dose: 0.3 mg/kg/injection, schedule: Q01DX017 (ip), vehicle: saline) is 111 % of control. Also, the T/C is 90 % of control (endpoint: mean survival time, dose: 0.4 mg/kg/injection, schedule: Q01DX009 (oral), vehicle: water); 98 % of control (endpoint: mean survival time, dose: 0.4 mg/kg/injection, schedule: Q01DX009 (sc), vehicle: water); 116 % of control and 96 % of control and 97 % of control (endpoint: mean survival time, dose: 0.5 mg/kg/injection, schedule: Q01DX009 (ip), vehicle: other); 112 % of control (endpoint: mean survival time, dose: 0.5 mg/kg/injection, schedule: Q01DX017 (ip), vehicle: saline); 87 % of control (endpoint: mean survival time, dose: 1.0 mg/kg/injection, schedule: Q01DX009 (ip), vehicle: other); 100 % of control (endpoint: mean survival time, dose: 1.6 mg/kg/injection, schedule: Q03HX024 (ip), vehicle: water). Moreover, the T/C is 110 % of control (endpoint: mean survival time, dose: 3.1 mg/kg/injection, schedule: Q03HX008 (ip), vehicle: water); 87 % of control (endpoint: mean survival time, dose: 3.1 mg/kg/injection, schedule: Q03HX024 (ip), vehicle: water); 155 % of control (endpoint: mean survival time, dose: 6.25 mg/kg/injection, schedule: Q04DX003 (ip), vehicle: water); 162 % of control and 165 % of control and 168 % of control (endpoint: mean survival time, dose: 7.5 mg/kg/injection, schedule: Q04DX003 (ip), vehicle: other); 160 % of control (endpoint: mean survival time, dose: 12.5 mg/kg/injection, schedule: Q04DX003 (ip), vehicle: water); 168 % of control and 177 % of control and 191 % of control (endpoint: mean survival time, dose: 15.0 mg/kg/injection, schedule: Q04DX003 (ip), vehicle: other). In addition, the T/C by setting is: (endpoint: mean survival time, dose: 25.0 mg/kg/injection, schedule: Q04DX003 (ip), vehicle: water) 178 % of control; (endpoint: mean survival time, dose: 25.0 mg/kg/injection, schedule: Q08DX002 (ip), vehicle: water) 169 % of control; (endpoint: mean survival time, dose: 30.0 mg/kg/injection, schedule: Q04DX003 (ip), vehicle: other) 178 % of control and 190 % of control and 191 % of control; (endpoint: mean survival time, dose: 50.0 mg/kg/injection, schedule: Q08DX002 (ip), vehicle: water) 165 % of control; (endpoint: mean survival time, dose: 60.0 mg/kg/injection, schedule: Q04DX003 (ip), vehicle: other) 155 % of control and 196 % of control and 203 % of control; (endpoint: mean survival time, dose: 100.0 mg/kg/injection, schedule: Q01DX001 (oral), vehicle: water) 124 % of control. The T/C was 96 % of control (endpoint: mean survival time, dose: 100.0 mg/kg/injection, schedule: Q01DX001 (sc), vehicle: water); 109 % of control (endpoint: mean survival time, dose: 100.0 mg/kg/injection, schedule: Q04DX003 (ip), vehicle: water); 158 % of control (endpoint: mean survival time, dose: 100.0 mg/kg/injection, schedule: Q08DX002 (ip), vehicle: water); 118 % of control (endpoint: mean survival time, dose: 200.0 mg/kg/injection, schedule: Q01DX001 (ip), vehicle: water); 121 % of control (endpoint: mean survival time, dose: 200.0 mg/kg/injection, schedule: Q01DX001 (oral), vehicle: water); 92 % of control (endpoint: mean survival time, dose: 400.0 mg/kg/injection, schedule: Q01DX001 (ip), vehicle: water).
Consider `O=[N+]([O-])c1ccc(SSC(Cl)(Cl)Cl)cc1`, for which the T/C was 101 % of control (endpoint: mean survival time, dose: 6.25 mg/kg/injection, schedule: Q01DX009 (ip), vehicle: saline with Tween-80); 101 % of control (endpoint: mean survival time, dose: 12.5 mg/kg/injection, schedule: Q01DX009 (ip), vehicle: saline with Tween-80); 101 % of control (endpoint: mean survival time, dose: 25.0 mg/kg/injection, schedule: Q01DX009 (ip), vehicle: saline with Tween-80); 100 % of control (endpoint: mean survival time, dose: 50.0 mg/kg/injection, schedule: Q01DX009 (ip), vehicle: saline with Tween-80).
With `COC(=O)Nc1nc2ccc(C(=O)c3ccccc3)cc2[nH]1`, the T/C reads like this: (endpoint: mean survival time, dose: 2.0 mg/kg/injection, schedule: Q04DX003 (ip), vehicle: saline with Tween-80) 94 % of control; (endpoint: mean survival time, dose: 4.0 mg/kg/injection, schedule: Q04DX003 (ip), vehicle: saline with Tween-80) 94 % of control; (endpoint: mean survival time, dose: 8.0 mg/kg/injection, schedule: Q04DX003 (ip), vehicle: saline with Tween-80) 91 % of control; (endpoint: mean survival time, dose: 16.0 mg/kg/injection, schedule: Q04DX003 (ip), vehicle: saline with Tween-80) 100 % of control and 112 % of control.
`Nc1c(Cl)c(Cl)cc(Cl)c1Cl`: the T/C (endpoint: mean survival time, dose: 100.0 mg/kg/injection, schedule: Q04DX003 (ip), vehicle: saline with Tween-80) is 97 % of control; the T/C (endpoint: mean survival time, dose: 200.0 mg/kg/injection, schedule: Q04DX003 (ip), vehicle: saline with Tween-80) was 102 % of control; the T/C (endpoint: mean survival time, dose: 400.0 mg/kg/injection, schedule: Q04DX003 (ip), vehicle: saline with Tween-80) is 92 % of control.
With `COC1(OC)C2(Cl)CCC1(Cl)CC2`, the T/C is 103 % of control (endpoint: mean survival time, dose: 50.0 mg/kg/injection, schedule: Q01DX001 (ip), vehicle: saline); 113 % of control (endpoint: mean survival time, dose: 100.0 mg/kg/injection, schedule: Q01DX001 (ip), vehicle: saline); 102 % of control (endpoint: mean survival time, dose: 200.0 mg/kg/injection, schedule: Q01DX001 (ip), vehicle: saline).
Take `NC(N)=NCCNC(=O)C1CCC(N)C1` (configuration not stated): the T/C (endpoint: mean survival time, dose: 0.63 mg/kg/injection, schedule: Q01DX009 (ip), vehicle: saline) was 96 % of control and the T/C (endpoint: mean survival time, dose: 1.25 mg/kg/injection, schedule: Q01DX009 (ip), vehicle: saline) was 96 % of control.
Take `c1cc2c(cc1NC1=NCCO1)CCC2`: the T/C is 103 % of control (endpoint: mean survival time, dose: 6.25 mg/kg/injection, schedule: Q04DX003 (ip), vehicle: saline with Tween-80); 108 % of control (endpoint: mean survival time, dose: 12.5 mg/kg/injection, schedule: Q04DX003 (ip), vehicle: saline with Tween-80); 111 % of control (endpoint: mean survival time, dose: 25.0 mg/kg/injection, schedule: Q04DX003 (ip), vehicle: saline with Tween-80).
As to `OCC1OC(n2cnc3c(Cl)ncnc32)C(O)C1O` (configuration not stated), the T/C reads like this: (endpoint: mean survival time, dose: 12.5 mg/kg/injection, schedule: Q01DX009 (ip), vehicle: saline) 86 % of control; (endpoint: mean survival time, dose: 25.0 mg/kg/injection, schedule: Q01DX009 (ip), vehicle: saline) 93 % of control; (endpoint: mean survival time, dose: 50.0 mg/kg/injection, schedule: Q01DX009 (ip), vehicle: saline) 93 % of control; (endpoint: mean survival time, dose: 62.0 mg/kg/injection, schedule: Q01DX Z (ip), vehicle: carboxymethylcellulose (CMC)) 97 % of control; (endpoint: mean survival time, dose: 100.0 mg/kg/injection, schedule: Q01DX009 (ip), vehicle: saline) 98 % of control; (endpoint: mean survival time, dose: 125.0 mg/kg/injection, schedule: Q01DX Z (ip), vehicle: carboxymethylcellulose (CMC)) 102 % of control. Also, the T/C runs as follows: (endpoint: mean survival time, dose: 200.0 mg/kg/injection, schedule: Q01DX009 (ip), vehicle: saline) 92 % of control; (endpoint: mean survival time, dose: 250.0 mg/kg/injection, schedule: Q01DX Z (ip), vehicle: carboxymethylcellulose (CMC)) 100 % of control; (endpoint: mean survival time, dose: 400.0 mg/kg/injection, schedule: Q01DX009 (ip), vehicle: saline) 98 % of control; (endpoint: mean survival time, dose: 500.0 mg/kg/injection, schedule: Q01DX Z (ip), vehicle: carboxymethylcellulose (CMC)) 96 % of control; (endpoint: median survival time, dose: 62.5 mg/kg/injection, schedule: Q01DX009 (ip), vehicle: saline) 94 % of control and 100 % of control; (endpoint: median survival time, dose: 125.0 mg/kg/injection, schedule: Q01DX009 (ip), vehicle: saline) 100 % of control. Further, the T/C is, setting by setting: (endpoint: median survival time, dose: 250.0 mg/kg/injection, schedule: Q01DX009 (ip), vehicle: saline) 88 % of control and 100 % of control; (endpoint: median survival time, dose: 500.0 mg/kg/injection, schedule: Q01DX009 (ip), vehicle: saline) 88 % of control.
As for `C[Si](O)(O)CCCCNC(=O)/C=C\C(=O)O`, the T/C (endpoint: mean survival time, dose: 100.0 mg/kg/injection, schedule: Q04DX003 (ip), vehicle: other) was 89 % of control; the T/C (endpoint: mean survival time, dose: 200.0 mg/kg/injection, schedule: Q04DX003 (ip), vehicle: other) is 93 % of control; the T/C (endpoint: mean survival time, dose: 400.0 mg/kg/injection, schedule: Q04DX003 (ip), vehicle: other) is 89 % of control.
